These results are taken from patent US11014902B2, “MYC G-quadruplex stabilizing small molecules and their use” (The United States of America, as represented by the …, priority 2015, dated 2021).

The experiment has as its system c-MYC G4 DNA (biotin-labeled Pu22 G-quadruplex). The experiment can be described thus: Surface plasmon resonance (SPR). It is filed as binding. The following applies: same experiment as Compound 1. The method, then:
In order to quantitatively assess the binding affinity of Compound 1 with the c-MYC G4, surface plasmon resonance (SPR) experiments (De Crescenzo, et al., Cell Mol Bioeng 2008, 1, 204) were performed using a biotinylated c-MYC G4 oligonucleotide. The oligonucleotide was immobilized to a streptavidin-coated chip, and binding was measured as a function of concentration. (FIG. 2). […] Furthermore, Compound 1 interacts with quadruplex DNA through a reversible binding interaction, and rapid, complete dissociation can be observed in the sensogram (FIG. 2C).
SPR experiments were performed with a Biacore T200 (GE Healthcare). […] The c-MYC DNA was then captured (FC2: 1245 Ru) on a Series S Sensor CM5 Chip (GE Healthcare) with amine-coupled Neutravidin (FC1: 4466 Ru, FC2: 5458 Ru). Single Cycle Kinetics (SCK) experiments were carried out with five injections of increasing concentration of analyte solution, which was prepared by a three-fold serial dilution of compound with buffer (10 mM Tris pH 7.5, 100 mM KCl, 3 mM EDTA) containing 3% DMSO. Binding analysis was conducted at a flow rate of 30 μL/min at 25° C. In each run, the association phase and the subsequent dissociation phase were monitored for 1 min and 10 min, respectively. Prior to each compound injection, three buffer injections were made. […]

SMILES strings stand for the structures.

Turning to `CN1CCC[C@H]1CCNC(=O)c1cn2c3c(c(N4CCC(c5cnccn5)C4)c(F)cc3c1=O)Oc1cc3ccccc3cc1-2` (stereo partly shown) [Quarfloxin, reference compound], the “binding (SPR)” value was “no evidence of binding”.
